Test results taken from patent publication US20250312497A1, “METHOD OF TREATING PROSTATE CANCER” (Novartis AG, priority 2022, published 2025).

System: PSMA-positive mCRPC participants
Assay: PSMAfore phase III: adverse events, serious adverse events, safety topics and deaths (safety set)
Format: in vivo, human
[1] = DCO 2 Oct 2022, safety set, preferred term
[2] = DCO 2 Oct 2022, safety set, system organ class
[3] = DCO 21 Jun 2023, ARDT prior to crossover
[4] = DCO 21 Jun 2023, most common AEs by PT (>10% in either arm)
[5] = DCO 21 Jun 2023, safety set, All Grades
[6] = DCO 21 Jun 2023, safety set, Grade >=3
[7] = Safety set, [[…]Lu]Lu-PSMA-617 N = 227, ARDT N = 232
[8] = Safety set, [[…]Lu]Lu-PSMA-617 N = 227, ARDT N = 232 (prior to crossover), CTCAE V5.0

`O=C([O-])CN1CCN(CC(=O)[O-])CCN(CC(=O)NCC2CCC(C(=O)N[C@@H](Cc3ccc4ccccc4c3)C(=O)NCCCC[C@H](NC(=O)N[C@@H](CCC(=O)O)C(=O)O)C(=O)O)CC2)CCN(CC(=O)[O-])CC1.[177Lu+3]` (stereo partly shown) [[177Lu]Lu-PSMA-617, lutetium (177Lu) vipivotide tetraxetan] was tested, and the “On-treatment deaths: Coma” value [1] was 0 n (%), the “On-treatment deaths: Dyspnoea” value [1] was 0 n (%) and the “On-treatment deaths: Intestinal ischaemia” value [1] was 1 (0.4) n (%). The “On-treatment deaths: Sepsis” value [1] was 1 (0.4) n (%), the “On-treatment deaths: Cardiac disorders” value [2] was 1 (0.4) n (%) and the “On-treatment deaths: Gastrointestinal disorders” value [2] was 1 (0.4) n (%). The “On-treatment deaths: Infections and infestations” value [2] was 2 (0.9) n (%), the “On-treatment deaths: Nervous system disorders” value [2] was 0 n (%) and the “On-treatment deaths: Respiratory, thoracic and mediastinal disorders” value [2] was 0 n (%). The “AEs leading to discontinuation, Treatment-related” value [3] was 3.1%, the “Grade≥3 AEs, Treatment-related” value [3] was 11.0% and the “Serious AEs, Treatment-related” value [3] was 3.1%. For the same molecule, the Anaemia [4] was 24.2%, the Arthralgia [4] was 18.9% and the Asthenia [4] was 31.7%. For the same molecule, the Back pain [4] was 12.3%, the COVID-19 [4] was 16.3% and the Constipation [4] was 22.0%. It also gave a Decreased appetite [4] of 21.1%, a Diarrhoea [4] of 16.3% and a Dry mouth [4] of 57.3%. For the same molecule, the Fatigue [4] was 22.9%, the Nausea [4] was 31.3% and the Oedema peripheral [4] was 8.4%. For the same molecule, the Vomiting [4] was 11.5%, the Weight decreased [4] was 6.6% and the “AE preferred term: Anaemia” value [5] was 55 (24.2) n (%). The “AE preferred term: Arthralgia” value [5] was 43 (18.9) n (%), the “AE preferred term: Asthenia” value [5] was 72 (31.7) n (%) and the “AE preferred term: Back pain” value [5] was 28 (12.3) n (%). For the same molecule, the “AE preferred term: COVID-19” value [5] was 37 (16.3) n (%), the “AE preferred term: Constipation” value [5] was 50 (22.0) n (%) and the “AE preferred term: Decreased appetite” value [5] was 48 (21.1) n (%). The “AE preferred term: Diarrhoea” value [5] was 37 (16.3) n (%), the “AE preferred term: Dry mouth” value [5] was 130 (57.3) n (%) and the “AE preferred term: Fatigue” value [5] was 52 (22.9) n (%). The “AE preferred term: Nausea” value [5] was 71 (31.3) n (%), the “AE preferred term: Oedema peripheral” value [5] was 19 (8.4) n (%) and the “AE preferred term: Vomiting” value [5] was 26 (11.5) n (%). For the same molecule, the “AE preferred term: Weight decreased” value [5] was 15 (6.6) n (%), the “Adverse events (participants with at least one event)” value [5] was 223 (98.2) n (%) and the “Adverse events leading to discontinuation” value [5] was 13 (5.7) n (%). For the same molecule, the “Adverse events leading to discontinuation, Treatment-related” value [5] was 7 (3.1) n (%), the “Adverse events leading to dose adjustment” value [5] was 8 (3.5) n (%) and the “Adverse events leading to dose interruption” value [5] was 27 (11.9) n (%). The “Adverse events requiring additional therapy” value [5] was 162 (71.4) n (%), the “Adverse events, Treatment-related” value [5] was 196 (86.3) n (%) and the “Fatal serious adverse events” value [5] was 4 (1.8) n (%). The “Fatal serious adverse events, Treatment-related” value [5] was 0 n (%), the Serious adverse events [5] was 46 (20.3) n (%) and the “Serious adverse events, Treatment-related” value [5] was 7 (3.1) n (%). The “AE preferred term: Anaemia” value [6] was 14 (6.2) n (%), the “AE preferred term: Arthralgia” value [6] was 0 n (%) and the “AE preferred term: Asthenia” value [6] was 1 (0.4) n (%). The “AE preferred term: Back pain” value [6] was 2 (0.9) n (%), the “AE preferred term: COVID-19” value [6] was 1 (0.4) n (%) and the “AE preferred term: Constipation” value [6] was 1 (0.4) n (%). The “AE preferred term: Decreased appetite” value [6] was 0 n (%), the “AE preferred term: Diarrhoea” value [6] was 0 n (%) and the “AE preferred term: Dry mouth” value [6] was 3 (1.3) n (%). For the same molecule, the “AE preferred term: Fatigue” value [6] was 0 n (%), the “AE preferred term: Nausea” value [6] was 0 n (%) and the “AE preferred term: Oedema peripheral” value [6] was 0 n (%). For the same molecule, the “AE preferred term: Vomiting” value [6] was 0 n (%), the “AE preferred term: Weight decreased” value [6] was 2 (0.9) n (%) and the “Adverse events (participants with at least one event)” value [6] was 78 (34.4) n (%). The “Adverse events leading to discontinuation” value [6] was 8 (3.5) n (%), the “Adverse events leading to discontinuation, Treatment-related” value [6] was 4 (1.8) n (%) and the “Adverse events leading to dose adjustment” value [6] was 3 (1.3) n (%). For the same molecule, the “Adverse events leading to dose interruption” value [6] was 13 (5.7) n (%), the “Adverse events requiring additional therapy” value [6] was 48 (21.1) n (%) and the “Adverse events, Treatment-related” value [6] was 25 (11.0) n (%). For the same molecule, the “Fatal serious adverse events” value [6] was 4 (1.8) n (%), the “Fatal serious adverse events, Treatment-related” value [6] was 0 n (%) and the Serious adverse events [6] was 41 (18.1) n (%). For the same molecule, the “Serious adverse events, Treatment-related” value [6] was 6 (2.6) n (%), the “Serious adverse event Acute kidney injury, All Grades” value [7] was 2 (0.9) n (%) and the “Serious adverse event Acute kidney injury, Grade >=3” value [7] was 2 (0.9) n (%). The “Serious adverse event Anaemia, All Grades” value [7] was 4 (1.8) n (%), the “Serious adverse event Anaemia, Grade >=3” value [7] was 3 (1.3) n (%) and the “Serious adverse event COVID-19, All Grades” value [7] was 1 (0.4) n (%). The “Serious adverse event COVID-19, Grade >=3” value [7] was 1 (0.4) n (%), the “Serious adverse event Femur fracture, All Grades” value [7] was 2 (0.9) n (%) and the “Serious adverse event Femur fracture, Grade >=3” value [7] was 2 (0.9) n (%). For the same molecule, the “Serious adverse event Haematuria, All Grades” value [7] was 0 n (%), the “Serious adverse event Haematuria, Grade >=3” value [7] was 0 n (%) and the “Serious adverse event Pain, All Grades” value [7] was 1 (0.4) n (%). For the same molecule, the “Serious adverse event Pain, Grade >=3” value [7] was 1 (0.4) n (%), the “Serious adverse event Pneumonia, All Grades” value [7] was 1 (0.4) n (%) and the “Serious adverse event Pneumonia, Grade >=3” value [7] was 1 (0.4) n (%). For the same molecule, the “Serious adverse event Sepsis, All Grades” value [7] was 3 (1.3) n (%), the “Serious adverse event Sepsis, Grade >=3” value [7] was 3 (1.3) n (%) and the “Serious adverse event Spinal cord compression, All Grades” value [7] was 2 (0.9) n (%). The “Serious adverse event Spinal cord compression, Grade >=3” value [7] was 2 (0.9) n (%), the “Serious adverse event Urinary retention, All Grades” value [7] was 1 (0.4) n (%) and the “Serious adverse event Urinary retention, Grade >=3” value [7] was 1 (0.4) n (%). The “Serious adverse event Urinary tract infection, All Grades” value [7] was 4 (1.8) n (%), the “Serious adverse event Urinary tract infection, Grade >=3” value [7] was 3 (1.3) n (%) and the “Serious adverse events: number of participants with at least one event, All Grades” value [8] was 46 (20.3) n (%). The “Serious adverse events: number of participants with at least one event, Grade >=3” value [8] was 41 (18.1) n (%).
